{"source": "ChEMBL document CHEMBL1147477", "about": "“(4-Carboxamido)phenylalanine is a surrogate for tyrosine in opioid receptor peptide ligands” (Bioorg Med Chem Lett, 2004)", "format_in_all_cases": "toxicity, cell-based", "key": {"[1]": {"test": "Lethal dose against HeLa human cervix cancer cell line", "conditions": "HeLa cells, read-out: LD50 (the source's name)"}, "[2]": {"test": "Lethal dose against HL-60 human peripheral blood cancer cell line", "conditions": "HL-60 cells, read-out: LD50 (the source's name)"}, "[3]": {"test": "Lethal dose against NUGC-3 human stomach cancer cell line", "conditions": "NUGC-3 cells, read-out: LD50 (the source's name)"}, "[4]": {"test": "Lethal dose against human […] HL- 60 cell line", "conditions": "HL-60 cells, read-out: LD50 (the source's name)"}}}
{"smiles": "CC(C)=C1Oc2c(ccc3c2C(O)OC(C)C3)C1=O", "note": "(centres undefined)", "values": [{"measurement": "CC50", "setting": "[1]", "value": 47, "unit": "µM"}, {"measurement": "CC50", "setting": "[2]", "value": 39, "unit": "µM"}, {"measurement": "CC50", "setting": "[3]", "value": 49, "unit": "µM"}]}
{"smiles": "CC(C)=C1Oc2c(ccc3cc(C)ncc23)C1=O", "values": [{"measurement": "CC50", "setting": "[4]", "value": 39, "unit": "µM"}]}
